The values below come from ChEMBL document CHEMBL3507680, “University of Dundee, Gates Library screen for HepG2 cell viability”.

Structures are written as SMILES.

The data set can be described thus: Human HepG2 cell viability assay in 384 well format. Set-up: dose 125 nL, time 70.5 hour; cytotoxicity at 70.5 h: concentration not given beside the values. Type of data set: toxicity, cell-based. To be noted: HepG2 cells, read-out: Inhibition.
For `COc1ccccc1CNC(=O)CS(=O)(=O)Cc1ccccc1`, the cytotoxicity at 70.5 h is -3.93%. Consider `O=C1CC[C@H]2[C@H](CCN2C(=O)C2CCCO2)N1CCN1CCCC1` (stereo partly drawn), for which the cytotoxicity at 70.5 h is -21.6%.

With `O=C1CC[C@H]2[C@H](CCN2C(=O)C2CCCO2)N1Cc1ccncc1` (stereo partly drawn), the cytotoxicity at 70.5 h is 7.56%. Turning to `c1cncc(OCc2noc3c2CN(Cc2ccoc2)CC3)c1`, the cytotoxicity at 70.5 h is -15.9%.

On to `CN(C)S(=O)(=O)N1CC[C@@H]2CN(Cc3cnn(C)c3)C[C@@H]2C1`, for which the cytotoxicity at 70.5 h was 32.1%. For `O=C(COc1ccccc1)N1CCC[C@]2(C[C@H](OCC3CC3)CO2)C1`, the cytotoxicity at 70.5 h is -7.58%.

As to `CCO[C@@H]1CO[C@@]2(CCCN(C(=O)c3ccc(OC)c(F)c3)C2)C1`, the cytotoxicity at 70.5 h stood at 9.35%. Consider `CS(=O)(=O)NC[C@]12COC[C@H]1CN(C(=O)c1ccoc1)C2`, for which the cytotoxicity at 70.5 h is -3.34%. Then `O=C1CCCN1CC1CN(C(=O)CC2CCCC2)Cc2nccn2C1` (stereo not drawn), with -8.43%. Take `CCC1=N[C@@]2(CC[C@@H]3CN(S(=O)(=O)CC)C[C@@H]32)C(=O)N1CC(C)C`: the cytotoxicity at 70.5 h is -1.65%.

For the compound `O=C(NCC1CC1)C1CN(C(=O)c2ccncc2)CC12CCOCC2` (stereo not drawn), the cytotoxicity at 70.5 h stood at 3.6%. Take `O=C(NCC1OCCc2cn(CC3CC3)nc21)c1ccsc1` (stereo not drawn): the cytotoxicity at 70.5 h is 47.4%.

As for `Cn1cccc1CN1CCC2(CCCN(C(=O)Cc3cccnc3)C2)C1` (stereo not drawn), the cytotoxicity at 70.5 h stood at 24.8%. Regarding `c1csc(CN2CC[C@H]3C[C@H](c4ccncn4)O[C@@H]3C2)c1`, the cytotoxicity at 70.5 h was -13.1%. In the case of `Cn1cc(C(=O)N2C[C@@H]3COC[C@]3(COCc3cccnc3)C2)cn1`, the cytotoxicity at 70.5 h is -12.3%.

Take `COCCC(=O)N1C[C@@H]2COC[C@]2(COCc2cccnc2)C1`: the cytotoxicity at 70.5 h was -13.6%. In the case of `CNC(=O)c1cc2c(nc1NCC1CC1)CCN(S(=O)(=O)C1CC1)CC2`, the cytotoxicity at 70.5 h came out at 2.84%. Next, `O=C(c1ccc[nH]1)N1CCCC2(CCN(c3ccsc3)C2=O)C1` (stereo not drawn): -11.6%; `O=C(c1ccsc1)N1CC[C@H]2C[C@@H](c3nnc(C4CC4)o3)O[C@@H]2C1`: -12.7%; `Cc1nn2c(=O)/c(=C\c3cccs3)sc2nc1=O`: -5.48%.

In the case of `CCn1cc(CN(C)S(=O)(=O)c2ccc(C)c(C)c2)cn1`, the cytotoxicity at 70.5 h amounted to 0.0869%. For `COc1ccc(CCC(=O)N(C)Cc2c(C)nn(C)c2C)cc1`, the cytotoxicity at 70.5 h is 1.57%. In the case of `CC(C(=O)NC1CCN(C)CC1)n1nc(C(F)(F)F)c(Cl)c1C1CC1` (stereo not drawn), the cytotoxicity at 70.5 h turned out to be 11.6%. Turning to `Cc1nn(CC(=O)Nc2ccon2)cc1Br`, the cytotoxicity at 70.5 h is -10.2%. Regarding `CCOC1(C)C(=O)c2ccccc2N1Nc1ccccc1C(=O)CC` (stereo not drawn), the cytotoxicity at 70.5 h was -14.4%. For `O=C(CCCC(=O)NCc1cccc(Br)c1)NCCN1CCCC1`, the cytotoxicity at 70.5 h was determined as 1.2%.

With `COc1cc(CNc2ccc(Cl)cc2)ccc1OCC(=O)O`, the cytotoxicity at 70.5 h is -19.8%. Then `O=C(COCC(=O)N(c1ccccc1)c1ccccc1)N1CCCCC1`, with 19.2%; and `COc1cc(CNc2ccccc2Cl)ccc1OCC(=O)O`, with 19%.

As for `CCN1CCN(S(=O)(=O)c2cc(C)c(C)cc2Br)CC1`, the cytotoxicity at 70.5 h was -6.61%. Then `CC(C)C(=O)Nc1cccc(C(=O)Nc2ccccn2)c1`, with -25.2%; and `Cc1cc(C)cc(NC(=O)Nc2c(O)oc3ccccc3c2=O)c1`, with -6.68%; and `CCOC(=O)c1sc(NC(=O)C(C)(C)C)c(C#N)c1C`, with 41.6%. Consider `O=C(NCCCN1CCOCC1)c1cccc(OCc2ccccc2)c1`, for which the cytotoxicity at 70.5 h is -2.84%.

Regarding `Nc1nnnn1NCc1ccccc1C(F)(F)F`, the cytotoxicity at 70.5 h is -8.4%. Next, `CN(C)c1ccc(CC2CCN(c3cnccn3)C2)nn1` (stereo not drawn): -8.95%; `NC(=O)CN1CCCCC1c1ccc(-n2ccnc2)nc1` (stereo not drawn): -3.85%.

With `Cc1cc(N2CCOC(c3ccncn3)C2)ncn1` (stereo not drawn), the cytotoxicity at 70.5 h was -0.0886%. Regarding `CN(C)C(=O)c1cccc(C2CCN(c3ncccn3)CC2)n1`, the cytotoxicity at 70.5 h was -4.03%. Then `Cc1ccnc(NC(=O)c2cncc(C3CCNCC3)n2)c1`, with -10.4%; and `COc1ccc(CC2CN(C(=O)c3coc(C)n3)CCO2)cc1` (stereo not drawn), with -9.96%; and `Cc1nc(C(=O)N2CCOC(Cc3ccc(F)cc3)C2)co1` (stereo not drawn), with -3.27%. Next, `CC(=O)N1CCC(c2[nH]ncc2S(C)(=O)=O)CC1`: -5.52%; `Cc1nccc(CC2COCCN(c3cnccn3)C2)n1` (stereo not drawn): 22.7%. For the compound `Cc1c(NC(=O)CN2CCC(Oc3cnccn3)CC2)cnn1C`, the cytotoxicity at 70.5 h was -3.61%. Then `Cc1nonc1CN(C)Cc1cnn(-c2ccc(Cl)cc2)c1`, with -3.48%. Turning to `O=C(CC1CCN(CCc2ccccc2)CC1)NC1CCOCC1`, the cytotoxicity at 70.5 h is -1.43%. In the case of `O=C(NCc1ccc2c(c1)OCO2)[C@@H]1C=CCN1c1ncccn1`, the cytotoxicity at 70.5 h is -1.63%. Regarding `O=C(NCc1ccc2c(c1)OCO2)[C@H]1C=CCN1c1ncccn1`, the cytotoxicity at 70.5 h is -4.63%. Next, `Cc1nn(C)cc1C1=NS(=O)(=O)N(C)C(C(=O)Nc2ccc(Cl)cc2)=C1`: 1.32%; `Cc1cc(-c2ccc(=O)n(C3CCN(C(=O)C4CC4)CC3)n2)c(C)o1`: -2.33%.

As to `Cc1cccc(Nc2ccc(C3CCCCN3)cn2)n1` (stereo not drawn), the cytotoxicity at 70.5 h stood at 4.51%.

On to `Cc1cc(C)nc(Nc2ccc(C3CCCCN3)cn2)n1` (stereo not drawn), for which the cytotoxicity at 70.5 h turned out to be 18.8%. As to `c1cnc(Nc2ccc(C3CCCCN3)cn2)cn1` (stereo not drawn), the cytotoxicity at 70.5 h is -5.51%. As for `Cc1cc(N2CCC(Cc3ccncc3)C2)ncn1` (stereo not drawn), the cytotoxicity at 70.5 h is -3.38%. On to `CC(C)N1CCC(c2cccc(C(=O)N(C)C)n2)CC1`, for which the cytotoxicity at 70.5 h stood at 24.4%. As for `CN(C)c1ccc(CC2CCCN(c3cnccn3)C2)nn1` (stereo not drawn), the cytotoxicity at 70.5 h is -6.12%. Consider `CCn1cc(S(=O)(=O)N2CCCC3(CC=CNC3=O)C2)c(C)n1` (stereo not drawn), for which the cytotoxicity at 70.5 h was -1.52%. For the compound `Fc1cc(F)cc(CN2CCC(c3cc4ncccc4cn3)CC2)c1`, the cytotoxicity at 70.5 h came out at 1.34%. As to `CCCn1cc(C(=O)NCc2nnc(-c3ccc(C)nc3)o2)c(C)n1`, the cytotoxicity at 70.5 h is -1.21%. Next, `Cc1nc(N(C)C)cc(C2(C)CCNCC2)n1`: -1.8%; `Cc1nc(C2CCN(C(C)C)CC2)sc1Br`: -2.12%; `CNc1cccc(C2CN(C(=O)CNS(C)(=O)=O)CCO2)n1` (stereo not drawn): 13%.

For `CCCn1ncc(CN(Cc2cccnc2)Cc2cccs2)c1C`, the cytotoxicity at 70.5 h stood at 21.4%. Take `Cc1nccnc1CCC1COCCN1C(=O)CCc1c(C)noc1C` (stereo not drawn): the cytotoxicity at 70.5 h is 15.5%.

Turning to `O=C(c1ccc(=O)[nH]n1)N1CCCC(O)(CN2CCC(F)(F)CC2)CC1` (stereo not drawn), the cytotoxicity at 70.5 h was -8.65%.

As to `COc1ccccc1CN1CCCC(Cc2nccnc2N)C1` (stereo not drawn), the cytotoxicity at 70.5 h is -8.24%. Next, `CN(C(=O)c1ccccc1F)[C@@H]1CC[C@@H](O)[C@@H]1O`: -5.24%; `CC(=O)N1CCOC(c2cncc(CCC(=O)N(C)C)n2)C1` (stereo not drawn): 5%; `CC(C)c1nccn1-c1nccnc1C1CCCN1Cc1ccccc1` (stereo not drawn): -6.32%. For the compound `C[C@@H]1CN2C[C@H](O)CC2CN1Cc1ccncc1` (stereo partly drawn), the cytotoxicity at 70.5 h was -3.16%. `O=C(NCC1(O)COCCN(Cc2cccc(O)c2)C1)c1ccccn1` (stereo not drawn): the cytotoxicity at 70.5 h is -5.55%. Regarding `Cc1cc(N2CCC(Cc3cccnc3)C2)ncn1` (stereo not drawn), the cytotoxicity at 70.5 h was -3.49%.

`NCc1cnn(-c2ccccc2C(=O)N2CCCC(C(N)=O)C2)c1` (stereo not drawn): the cytotoxicity at 70.5 h was -2.72%. Turning to `Cc1cc(-c2cncnc2)nc(C2CCCN2S(C)(=O)=O)n1` (stereo not drawn), the cytotoxicity at 70.5 h is -2.87%. Then `CC(C)OCC(=O)N1CCC(c2ncncc2-c2ccnc(N)c2)C1` (stereo not drawn), with -5.98%; and `CCC(=O)N1CCCC1c1nc(N(C)C)ncc1-c1ccc(Cl)cc1` (stereo not drawn), with 2.05%; and `Cc1ncsc1CN1CCOC(C)(C(=O)N2CCOCC2)C1` (stereo not drawn), with -2.94%. Then `CN1CCCc2cc(-c3cncn3CCNC3CCS(=O)(=O)C3)ccc21` (stereo not drawn), with -4.36%; and `O=S1(=O)CCC(NCCn2cncc2-c2ccc3c(c2)CCCO3)C1` (stereo not drawn), with -8.18%; and `c1cncc(CNCc2cccs2)c1`, with 26%. In the case of `Fc1ccc(F)c(CN2CCC(c3cc4ncccc4cn3)CC2)c1`, the cytotoxicity at 70.5 h is 4.59%. With `Fc1cccc(CN2CCC(c3cc4ncccc4cn3)CC2)c1F`, the cytotoxicity at 70.5 h came to 4.71%. Next, `NCC1CCC(c2c(C(=O)NCCO)sc3ccccc23)CC1` (stereo not drawn): 16.1%; `CCS(=O)(=O)N1CCc2c(nc(C3CCCN3)nc2NC)C1` (stereo not drawn): 18.6%. Next, `COCCNC(=O)C(C)N1CCN(C)CC1` (stereo not drawn): -5.18%; `O=C(NC[C@]12COC[C@H]1CN(Cc1nccs1)C2)c1ccccc1`: -15%. `Cc1cccc(CN2CCC3(CCCN(C(=O)NC4CC4)C3)C2=O)n1` (stereo not drawn): the cytotoxicity at 70.5 h was 25.5%.

In the case of `Cc1ccoc1C(=O)N1C[C@@H]2[C@@H](C1)OCC(=O)N2Cc1cccnc1`, the cytotoxicity at 70.5 h came out at 29.7%. Then `c1ccc(N2CCOC3(CCCN(c4nncs4)C3)C2)nc1` (stereo not drawn), with -2.74%. With `Cc1cccc(CN2CCC3(CCCN(C(=O)c4ccsc4)C3)C2=O)n1` (stereo not drawn), the cytotoxicity at 70.5 h was 5.46%.

Turning to `CNC(=O)c1cc2c(nc1N(C)C)CCN(S(=O)(=O)C1CC1)CC2`, the cytotoxicity at 70.5 h was 20.2%. Next, `O=C(c1cccnc1)N1CCC2(CC1)CCN(c1ccsc1)C2=O`: -4.42%; `Cc1noc([C@H]2C[C@@H]3CCN(CC4CC4)C[C@H]3O2)n1`: -7.86%. As to `CNC(=O)c1cc2c(nc1N(C)C)CCN(S(=O)(=O)CC(C)C)CC2`, the cytotoxicity at 70.5 h is -12.2%.

For the compound `Cn1cc(CN2C[C@@H]3CN(Cc4ccoc4)CCO[C@@H]3C2)cn1`, the cytotoxicity at 70.5 h is -3.44%. For the compound `CN1CC(=O)N(c2cccc(F)c2)CC12CCN(Cc1cccnc1)C2` (stereo not drawn), the cytotoxicity at 70.5 h was 3.06%.

On to `CCOC(=O)[C@]12CCCN(Cc3nccs3)C[C@H]1CN(CCN(C)C)C2`, for which the cytotoxicity at 70.5 h was -10.1%.
